Measurements from US20190134005A1 (BioMarin Pharmaceutical Inc., priority 2016, published 2019).

What follows are compounds tested against T1, human CGT (Homo sapiens, UniProt Q16880) (assay: Assay 1: CGT Enzymatic Assay (RapidFire/MS/MS, 0.01% Tween 80)). Settings: Table 1, Compounds of Formula (I) and Formula (II); CGT enzymatic assay; read-out: IC50.
T1 sequence (Q16880 21-541): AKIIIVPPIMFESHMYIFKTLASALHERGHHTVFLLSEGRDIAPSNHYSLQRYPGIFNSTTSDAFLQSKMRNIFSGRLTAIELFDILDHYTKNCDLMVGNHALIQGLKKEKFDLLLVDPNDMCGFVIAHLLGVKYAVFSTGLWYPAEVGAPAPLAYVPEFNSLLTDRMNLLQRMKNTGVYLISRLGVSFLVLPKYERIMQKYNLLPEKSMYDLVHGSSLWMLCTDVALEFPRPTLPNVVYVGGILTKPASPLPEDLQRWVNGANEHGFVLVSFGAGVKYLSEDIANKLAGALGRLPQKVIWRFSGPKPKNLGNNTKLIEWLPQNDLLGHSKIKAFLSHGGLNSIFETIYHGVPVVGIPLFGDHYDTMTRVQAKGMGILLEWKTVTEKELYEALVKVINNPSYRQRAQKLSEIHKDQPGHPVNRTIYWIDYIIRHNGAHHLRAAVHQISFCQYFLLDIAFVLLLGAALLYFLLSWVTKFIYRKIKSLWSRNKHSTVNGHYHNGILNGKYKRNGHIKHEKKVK
Type: biochemical
`O=C1N(c2ccc(Cl)c(Cl)c2)CC(O)(c2ccccc2)N1c1ccc(Cl)c(Cl)c1` (stereo not shown) [Example 32, 1,3-bis(3,4-dichlorophenyl)-4-hydroxy-4-phenylimidazolidin-2-one] was tested, and the IC50 was 1 to 10 µM.
Work on `Cc1cc(C)cc(C2(O)CN(c3ccc(Br)cc3)C(=O)N2c2ccc(Br)cc2)c1` (stereo not shown) [Example 33, 1,3-bis(4-bromophenyl)-4-(3,5-dimethylphenyl)-4-hydroxyimidazolidin-2-one] yielded an IC50 of 10 to 50 µM.
Compound `Cc1cccc(C2(O)CN(c3ccc(Cl)cc3)C(=O)N2c2ccc(Cl)cc2)c1` (stereo not shown) [Example 34, 1,3-bis(4-chlorophenyl)-4-hydroxy-4-(m-tolyl)imidazolidin-2-one] has an IC50 of 1 to 10 µM.
`O=C1N(c2ccc(Br)cc2)CC(O)(c2cccc(Cl)c2)N1c1ccc(Br)cc1` (stereo not shown) [Example 35, 1,3-bis(4-bromophenyl)-4-(3-chlorophenyl)-4-hydroxyimidazolidin-2-one] showed an IC50 of 1 to 10 µM.
`Cc1cccc(C2(O)[C@H](C)N(c3ccc(Cl)cc3)C(=O)N2c2ccc(Cl)cc2)c1` (stereo partly shown) [Example 36-1] gave an IC50 of less than 1 µM.
In the case of `Cc1cccc(C2(O)[C@@H](C)N(c3ccc(Cl)cc3)C(=O)N2c2ccc(Cl)cc2)c1` (stereo partly shown) [Example 36-2], the IC50 is reported as 1 to 10 µM.
`Cc1cccc(C2(O)C(C)N(c3ccc(Cl)cc3)C(=O)N2c2ccc(Cl)cc2)c1` (stereo not shown) [Example 36] gave an IC50 of less than 1 µM.
In the case of `Cc1c(-c2cccc(C(C)O)c2)n(-c2ccc(Cl)cc2)c(=O)n1-c1ccc(Cl)cc1` (stereo not shown) [Example 37, 1,3-bis(4-chlorophenyl)-4-(3-(1-hydroxyethyl)phenyl)-5-methyl-1,3-dihydro-2H-imidazol-2-one], the IC50 is reported as 1 to 10 µM.
`O=C1N(c2ccc(Cl)cc2)CC(O)(c2ccccc2)N1c1ccc(Br)cc1` (stereo not shown) [Example 38, 3-(4-bromophenyl)-1-(4-chlorophenyl)-4-hydroxy-4-phenylimidazolidin-2-one] showed an IC50 of 10 to 50 µM.
With `O=C1N(c2ccc(Cl)cc2)CC(O)(c2cccc(Cl)c2)N1c1ccc(Cl)cc1` (stereo not shown) [Example 39, 4-(3-chlorophenyl)-1,3-bis(4-chlorophenyl)-4-hydroxyimidazolidin-2-one] the IC50 was less than 1 µM.
`CCc1c(-c2cccc(C(F)(F)F)c2)n(-c2ccc(Cl)cc2)c(=O)n1-c1ccc(Cl)cc1` [Example 40, 1,3-bis(4-chlorophenyl)-4-ethyl-5-(3-(trifluoromethyl)phenyl)-1,3-dihydro-2H-imidazol-2-one] showed an IC50 of less than 1 µM.
`COCc1c(-c2cccc(C(F)(F)F)c2)n(-c2ccc(Cl)cc2)c(=O)n1-c1ccc(Cl)cc1` [Example 41, 1,3-bis(4-chlorophenyl)-4-(methoxymethyl)-5-(3-(trifluoromethyl)phenyl)-1,3-dihydro-2H-imidazol-2-one] showed an IC50 of less than 1 µM.
Compound `Cc1cc(C)cc(C2(O)[C@H](C)N(c3ccc(Br)cc3)C(=O)N2c2ccc(Br)cc2)c1` (stereo partly shown) [Example 42-1] has an IC50 of less than 1 µM.
For `Cc1cc(C)cc(C2(O)[C@@H](C)N(c3ccc(Br)cc3)C(=O)N2c2ccc(Br)cc2)c1` (stereo partly shown) [Example 42-2], the IC50 was 1 to 10 µM.
`Cc1cc(C)cc(C2(O)C(C)N(c3ccc(Br)cc3)C(=O)N2c2ccc(Br)cc2)c1` (stereo not shown) [Example 42] gave an IC50 of less than 1 µM.
Work on `O=C1N(c2ccc(Br)cc2)CC(O)(c2ccccc2)N1c1ccc(Cl)cc1` (stereo not shown) [Example 43, 1-(4-bromophenyl)-3-(4-chlorophenyl)-4-hydroxy-4-phenylimidazolidin-2-one] yielded an IC50 of 1 to 10 µM.
`CC(C)c1c(-c2cccc(C#N)c2)n(-c2ccc(Cl)cc2)c(=O)n1-c1ccc(Cl)cc1` [Example 44, 3-(1,3-bis(4-chlorophenyl)-5-isopropyl-2-oxo-2,3-dihydro-1H-imidazol-4-yl)benzonitrile] showed an IC50 of less than 1 µM.
For `CCC1(O)[C@H](c2ccccc2)N(c2ccc(Br)cc2)C(=O)N1c1ccc(Br)cc1` (stereo partly shown) [Example 45-1], the IC50 was less than 1 µM.
`CCC1(O)[C@@H](c2ccccc2)N(c2ccc(Br)cc2)C(=O)N1c1ccc(Br)cc1` (stereo partly shown) [Example 45-2] showed an IC50 of 10 to 50 µM.
In the case of `CCC1(O)C(c2ccccc2)N(c2ccc(Br)cc2)C(=O)N1c1ccc(Br)cc1` (stereo not shown) [Example 45], the IC50 is reported as 1 to 10 µM.
For `CC(C)c1c(-c2cccc(C#N)c2)n(-c2ccc(Br)cc2)c(=O)n1-c1ccc(Br)cc1` [Example 46, 3-(1,3-bis(4-bromophenyl)-5-isopropyl-2-oxo-2,3-dihydro-1H-imidazol-4-yl)benzonitrile], the IC50 was less than 1 µM.
`CCc1cccc(C2(O)CN(c3ccc(Br)cc3)C(=O)N2c2ccc(Br)cc2)c1` (stereo not shown) [Example 47, 1,3-bis(4-bromophenyl)-4-(3-ethylphenyl)-4-hydroxyimidazolidin-2-one] gave an IC50 of 1 to 10 µM.
With `N#Cc1cccc(-c2c(C3CC3)n(-c3ccc(Cl)cc3)c(=O)n2-c2ccc(Cl)cc2)c1` [Example 48, 3-(1,3-bis(4-chlorophenyl)-5-cyclopropyl-2-oxo-2,3-dihydro-1H-imidazol-4-yl)benzonitrile] the IC50 was less than 1 µM.
With `C[C@@H]1N(c2ccc(Br)cc2)C(=O)N(c2ccc(Br)cc2)C1(O)c1cccs1` (stereo partly shown) [Example 49-1] the IC50 was 1 to 10 µM.
Work on `C[C@H]1N(c2ccc(Br)cc2)C(=O)N(c2ccc(Br)cc2)C1(O)c1cccs1` (stereo partly shown) [Example 49-2] yielded an IC50 of 1 to 10 µM.
In the case of `CC(C)c1c(-c2cccc(OC(F)(F)F)c2)n(-c2ccc(Cl)cc2)c(=O)n1-c1ccc(Cl)cc1` [Example 50], the IC50 is reported as less than 1 µM.
Work on `CC[C@]1(C)C(c2cccc(OC(F)(F)F)c2)N(c2ccc(C#N)cc2)C(=O)N1c1ccc(C#N)cc1` (stereo partly drawn) [Example 51-1, 4,4′-((4R)-4-ethyl-4-methyl-2-oxo-5-(3-(trifluoromethoxy)phenyl)imidazolidine-1,3-diyl)dibenzonitrile] yielded an IC50 of 1 to 10 µM.
With `COc1ccc(C2(O)CN(c3ccc(Br)cc3)C(=O)N2c2ccc(Br)cc2)cn1` (stereo not shown) [Example 54, 1,3-bis(4-bromophenyl)-4-hydroxy-4-(6-methoxypyridin-3-yl)imidazolidin-2-one] the IC50 was greater than 50 µM.
For `O=C1N(c2ccc(Cl)cc2)CC(O)(c2cccc(Br)c2)N1c1ccc(Cl)cc1` (stereo not shown) [Example 55, 4-(3-bromophenyl)-1,3-bis(4-chlorophenyl)-4-hydroxyimidazolidin-2-one], the IC50 was 1 to 10 µM.
For `CCC1(O)CN(c2ccc(Cl)cc2)C(=O)N1c1ccc(Cl)cc1` (stereo not shown) [Example 56, 1,3-bis(4-chlorophenyl)-4-ethyl-4-hydroxyimidazolidin-2-one], the IC50 was greater than 50 µM.
Compound `O=C1N(c2ccc(Cl)cc2Cl)CC(O)(c2ccccc2)N1c1ccc(Cl)cc1Cl` (stereo not shown) [Example 57, 1,3-bis(2,4-dichlorophenyl)-4-hydroxy-4-phenylimidazolidin-2-one] has an IC50 greater than 50 µM.
In the case of `CCCCCCC1(O)C(=O)N(c2ccc(Br)cc2)C(=O)N1c1ccc(Br)cc1` (stereo not shown) [Example 157, 1,3-bis(4-bromophenyl)-5-hexyl-5-hydroxyimidazolidine-2,4-dione], the IC50 is reported as 50 to 100 µM.
For `CC1(C)N(c2ccc(Cl)cc2)C(=O)N(c2ccc(Cl)cc2)C1(O)c1cc(Br)cc(C#N)c1` (stereo not shown) [Example 158, 3-(1,3-bis(4-chlorophenyl)-4-hydroxy-5,5-dimethyl-2-oxoimidazolidin-4-yl)-5-bromobenzonitrile], the IC50 was less than 1 µM.
Compound `CC1(C(F)(F)F)N(c2ccc(Cl)cc2)C(=O)N(c2ccc(Cl)cc2)C1(O)c1cccc(OC(F)(F)F)c1` (stereo not shown) [Example 159, 1,3-bis(4-chlorophenyl)-4-hydroxy-5-methyl-4-(3-(trifluoromethoxy)phenyl)-5-(trifluoromethyl)imidazolidin-2-one] has an IC50 of less than 1 µM.
`COc1ccc(N2C(=O)N(c3ccc(OC)cc3)C(O)(c3ccccc3)C2=O)cc1` (stereo not shown) [Example 160, 5-hydroxy-1,3-bis(4-methoxyphenyl)-5-phenylimidazolidine-2,4-dione] showed an IC50 greater than 50 µM.
Work on `O=C1N(c2ccc(F)cc2)C(=O)C(O)(c2ccccc2)N1c1ccc(F)cc1` (stereo not shown) [Example 161, 1,3-bis(4-fluorophenyl)-5-hydroxy-5-phenylimidazolidine-2,4-dione] yielded an IC50 greater than 50 µM.
Compound `O=C1N(c2cccc(Cl)c2)C(=O)C(O)(c2ccccc2)N1c1cccc(Cl)c1` (stereo not shown) [Example 162, 1,3-bis(3-chlorophenyl)-5-hydroxy-5-phenylimidazolidine-2,4-dione] has an IC50 of 10 to 50 µM.
Work on `CCC1(C)N(c2ccc(Cl)cc2)C(=O)N(c2ccc(Cl)cc2)C1(O)c1cccc(OC(F)(F)F)c1` (stereo not shown) [Example 163, 1,3-bis(4-chlorophenyl)-4-ethyl-5-hydroxy-4-methyl-5-(3-(trifluoromethoxy)phenyl)imidazolidin-2-one] yielded an IC50 of less than 1 µM.
Work on `O=C1N(c2ccc(Br)cc2)C(=O)C(O)(c2ccc(OC3CC3)cc2)N1c1ccc(Br)cc1` (stereo not shown) [Example 164, 1,3-bis(4-bromophenyl)-5-(4-cyclopropoxyphenyl)-5-hydroxyimidazolidine-2,4-dione] yielded an IC50 greater than 50 µM.
Work on `O=C1N(c2ccc(Cl)cc2)C2(CCC2)C(O)(c2cccc(OC(F)F)c2)N1c1ccc(Cl)cc1` (stereo not shown) [Example 165, 5,7-bis(4-chlorophenyl)-8-(3-(difluoromethoxy)phenyl)-8-hydroxy-5,7-diazaspiro[3.4]octan-6-one] yielded an IC50 of less than 1 µM.
Work on `CN(C)CC1N(c2ccc(Cl)cc2)C(=O)N(c2ccc(Cl)cc2)C1(O)c1cccc(OC(F)(F)F)c1` (stereo not shown) [Example 166, 1,3-bis(4-chlorophenyl)-5-((dimethylamino)methyl)-4-hydroxy-4-(3-(trifluoromethoxy)phenyl)imidazolidin-2-one] yielded an IC50 of less than 1 µM.
With `O=C1N(c2ccc(Br)cc2)C(=O)C(O)(c2ccc(OC3CCCC3)cc2)N1c1ccc(Br)cc1` (stereo not shown) [Example 167, 1,3-bis(4-bromophenyl)-5-(4-(cyclopentyloxy)phenyl)-5-hydroxyimidazolidine-2,4-dione] the IC50 was 50 to 100 µM.
`O=C1N(c2ccc(OC3CCCC3)cc2)C(=O)C(O)(c2ccccc2)N1c1ccc(OC2CCCC2)cc1` (stereo not shown) [Example 168, 1,3-bis(4-(cyclopentyloxy)phenyl)-5-hydroxy-5-phenylimidazolidine-2,4-dione] was tested, and the IC50 was greater than 50 µM.
